Assay results reported in patent US9918964B2, “Reducing platelet activation, aggregation and platelet-stimulated thrombosis or blood coagulation by reducing mitochondrial respiration” (priority 2010, dated 2018).
In brackets after ≈: the same amount, converted by molar mass. Several values for one entry are separate records, joined by “and”; a condition that tells them apart may be missing. Identical values can stand only once. Like-named read-outs stand apart in the source and are kept apart here.

Columns and labels:
platelets in whole blood = test: Platelet function testing with the Hemostasis Mechanism Analyzer (HMA): clumping, sticking, clotting in whole blood; assay type: cell-based, human; conditions: for activity at 700 µg/mL / activity at 3300 µg/mL / activity at 6700 µg/mL / activity at 11700 µg/mL / activity at 23300 µg/mL / activity at 670 µg/mL / activity at 5000 µg/mL: Homo sapiens, Platelet; for activity at 700 µg/mL: Dosage (mg/ml) 0.7; for activity at 11700 µg/mL: Dosage (mg/ml) 11.7; for activity at 23300 µg/mL: Dosage (mg/ml) 23.3
[1] = system: mitochondria isolated from liver of tilapia (Sarotheridon mossambica); assay type: biochemical
[2] = system: mitochondria isolated from liver of tilapia (Sarotheridon mossambica); assay type: biochemical; remark: listed apart in the source
mitochondria = test: Hydrogen peroxide levels on mitochondrial inhibition (unpublished results)
From the text: Various experimental models of Parkinson's disease and other maladies have implicated mitochondrial dysfunction and excessive Reactive Oxygen Species (ROS) as possible contributors. Fortunately it is routine in the art to screen mitochondrial inhibitors or indeed any platelet inhibitor for hydrogen peroxide production in vitro, to select active agents that are suitable for long term administration as long as the production of hydrogen peroxide is not excessive.

[3] = 0 dosage = 100, read-out: % clot time increase
[4] = 0 dosage = 100, read-out: % clump time increase
[5] = 0 dosage = 100, read-out: % stick time increase
[6] = Dosage (mg/ml) 3.3, 0 dosage = 100, read-out: % clot time increase
[7] = Dosage (mg/ml) 3.3, 0 dosage = 100, read-out: % clump time increase
[8] = Dosage (mg/ml) 3.3, 0 dosage = 100, read-out: % stick time increase
[9] = Dosage (mg/ml) 6.7, 0 dosage = 100, read-out: % clot time increase
[10] = Dosage (mg/ml) 6.7, 0 dosage = 100, read-out: % clump time increase
[11] = Dosage (mg/ml) 6.7, 0 dosage = 100, read-out: % stick time increase
[12] = in vitro whole blood assay, clumping, sticking, clotting
[13] = read-out: % clump time increase
[14] = read-out: % stick time increase
[15] = Dosage (mg/ml) 5, 0 dosage = 100, read-out: % clot time increase
[16] = Dosage (mg/ml) 5, 0 dosage = 100, read-out: % clump time increase
[17] = Dosage (mg/ml) 5, 0 dosage = 100, read-out: % stick time increase

In the case of `Cc1ncsc1CCOC(=O)C[P+](c1ccccc1)(c1ccccc1)c1ccccc1.[Br-]` [Compound 49, [2-[2-(4-methylthiazol-5-yl)ethoxy]-2-oxo-ethyl]-triphenyl-phosphonium bromide], the “activity in the platelet assays (active agent or inactive)” value (“activity in the platelet assays” below) (platelets in whole blood) is reported as “significantly reduced platelet activity or aggregation”, the “Reversible?” value [1] is reported as “irreversible and No” and the “IC50 (mg/ml) mitochondria inhibition” value [2] is reported as 8.8 mg/mL.
In the case of Thiazole [Compound 47], the “activity in the platelet assays” value (platelets in whole blood) is reported as “inactive”, the “Reversible?” value [1] is reported as “reversible and Yes” and the “IC50 (mg/ml) mitochondria inhibition” value [2] is reported as 21.3 mg/mL.
In the case of `Cc1cncs1` [Compound 94, 5-methylthiazole], the “Reversible?” value [1] is reported as “reversible and Yes” and the “IC50 (mg/ml) mitochondria inhibition” value [2] is reported as 23.5 mg/mL (≈ 237 mM).
For `Nc1nnn[nH]1` [Compound 34, 1H-tetrazol-5-amine], the “Reversible?” value [1] was “reversible and Yes” and the “IC50 (mg/ml) mitochondria inhibition” value [2] was 8.5 mg/mL (≈ 99.9 mM).
With `Cc1ncsc1C` [Compound 92, 4,5-dimethylthiazole] the activity at 700 µg/mL (platelets in whole blood; [3]) was 100%, the activity at 700 µg/mL (platelets in whole blood; [4]) was 112% and the activity at 700 µg/mL (platelets in whole blood; [5]) was 118%. For the same molecule, the activity at 3300 µg/mL (platelets in whole blood; [6]) was 101%, the activity at 3300 µg/mL (platelets in whole blood; [7]) was 176% and the activity at 3300 µg/mL (platelets in whole blood; [8]) was 171%. The activity at 6700 µg/mL (platelets in whole blood; [9]) was 106%, the activity at 6700 µg/mL (platelets in whole blood; [10]) was 195% and the activity at 6700 µg/mL (platelets in whole blood; [11]) was 179%. For the same molecule, the activity at 11700 µg/mL (platelets in whole blood; [3]) was 126%, the activity at 11700 µg/mL (platelets in whole blood; [4]) was 224% and the activity at 11700 µg/mL (platelets in whole blood; [5]) was 211%. For the same molecule, the activity at 23300 µg/mL (platelets in whole blood; [3]) was 162%, the activity at 23300 µg/mL (platelets in whole blood; [4]) was 717% and the activity at 23300 µg/mL (platelets in whole blood; [5]) was 546%. The “IC50 (mg/ml) mitochondria inhibition” value [2] was 50.9 mg/mL (≈ 450 mM).
In the case of `Sc1ncc[nH]1` [Compound 84, 1H-imidazole-2-thiol], the activity at 6700 µg/mL (platelets in whole blood; [9]) is reported as 99%, the activity at 6700 µg/mL (platelets in whole blood; [10]) is reported as 113% and the activity at 6700 µg/mL (platelets in whole blood; [11]) is reported as 105%. The activity at 11700 µg/mL (platelets in whole blood; [3]) was 110%, the activity at 11700 µg/mL (platelets in whole blood; [4]) was 121% and the activity at 11700 µg/mL (platelets in whole blood; [5]) was 111%. For the same molecule, the activity at 23300 µg/mL (platelets in whole blood; [3]) was 128%, the activity at 23300 µg/mL (platelets in whole blood; [4]) was 149% and the activity at 23300 µg/mL (platelets in whole blood; [5]) was 142%. For the same molecule, the “activity in the platelet assays” value (platelets in whole blood; [12]) was “met the criteria for active agents” and the “IC50 (mg/ml) mitochondria inhibition” value [2] was 17.3 mg/mL (≈ 173 mM).
For `Brc1nn[nH]c1Br` [Compound 48, 4,5-dibromo-1H-triazole], the “activity in the platelet assays” value (platelets in whole blood; [12]) was “met the criteria for active agents”, the “Reversible?” value [1] was “reversible and Yes” and the “IC50 (mg/ml) mitochondria inhibition” value [2] was 30 mg/mL (≈ 132 mM).
`Cc1nnn[nH]1` [Compound 76, 5-methyl-1H-tetrazole] was tested, and the activity at 670 µg/mL (platelets in whole blood; read-out: % clot time increase) was 91%, the activity at 3300 µg/mL (platelets in whole blood; read-out: % clot time increase) was 120% and the activity at 6700 µg/mL (platelets in whole blood; read-out: % clot time increase) was 301%. For the same molecule, the activity at 670 µg/mL (platelets in whole blood; [13]) was 129%, the activity at 3300 µg/mL (platelets in whole blood; [13]) was 209% and the activity at 670 µg/mL (platelets in whole blood; [14]) was 125%. For the same molecule, the activity at 3300 µg/mL (platelets in whole blood; [14]) was 217%, the activity at 6700 µg/mL (platelets in whole blood; [14]) was 983% and the “IC50 (mg/ml) mitochondria inhibition” value [2] was 12.6 mg/mL (≈ 150 mM).
`c1cncnc1` [Compound 81, pyrimidine] was tested, and the “activity in the platelet assays” value (platelets in whole blood; [12]) was “inactive” and the “IC50 (mg/ml) mitochondria inhibition” value [2] was 51.5 mg/mL (≈ 643 mM).
For tetrazole [Compound 93], the “% clot time increase” value (platelets in whole blood) was 150% and 128% and 114%, the “% clump time increase” value (platelets in whole blood) was 211% and 194% and 116% and the “% stick time increase” value (platelets in whole blood) was 193% and 173% and 116%. The “Reversible?” value ([1]; reversible if respiration rate after removing the inhibitor returned to greater than 75% of its value in the absence of inhibitor) was “reversible and Yes”, the “IC50 (mg/ml) mitochondria inhibition” value [2] was 31.5 mg/mL and the hydrogen peroxide levels (mitochondria) was “elevated levels of hydrogen peroxide”.
For `Clc1nnnn1-c1ccccc1` [Compound 54, 5-chloro-1-phenyl-tetrazole], the “activity in the platelet assays” value (platelets in whole blood; [12]) was “inactive” and the “IC50 (mg/ml) mitochondria inhibition” value [2] was 12.5 mg/mL (≈ 69.2 mM).
`Cn1nnnc1S` [Compound 53, 1-methyltetrazole-5-thiol] was tested, and the activity at 3300 µg/mL (platelets in whole blood; [6]) was 117%, the activity at 3300 µg/mL (platelets in whole blood; [7]) was 124% and the activity at 3300 µg/mL (platelets in whole blood; [8]) was 117%. The activity at 5000 µg/mL (platelets in whole blood; [15]) was 132%, the activity at 5000 µg/mL (platelets in whole blood; [16]) was 185% and the activity at 5000 µg/mL (platelets in whole blood; [17]) was 176%. The activity at 6700 µg/mL (platelets in whole blood; [9]) was 160%, the activity at 6700 µg/mL (platelets in whole blood; [10]) was 292% and the activity at 6700 µg/mL (platelets in whole blood; [11]) was 265%. For the same molecule, the “IC50 (mg/ml) mitochondria inhibition” value [2] was 27.5 mg/mL (≈ 237 mM).
In the case of `Cn1c(-c2ccccc2)c[nH]c1=S` [Compound 91, 3-methyl-4-phenyl-1H-imidazole-2-thione], the “activity in the platelet assays” value (platelets in whole blood; [12]) is reported as “inactive” and the “IC50 (mg/ml) mitochondria inhibition” value [2] is reported as 5.4 mg/mL (≈ 28.4 mM).
`C[N+](C)(C)[C@H](Cc1c[nH]c(=S)[nH]1)C(=O)[O-]` [Compound 51, (2R)-3-(2-thioxo-1,3-dihydroimidazol-4-yl)-2-(trimethylammonio) propanoate] was tested, and the “activity in the platelet assays” value (platelets in whole blood; [12]) was “inactive” and the “IC50 (mg/ml) mitochondria inhibition” value [2] was 93.8 mg/mL (≈ 409 mM).
`NC(=O)c1nn[nH]n1` [Compound 71, 2H-tetrazole-5-carboxamide] showed an activity at 3300 µg/mL (platelets in whole blood; read-out: % clot time increase) of 112%, an activity at 5000 µg/mL (platelets in whole blood; read-out: % clot time increase) of 122% and an activity at 6700 µg/mL (platelets in whole blood; read-out: % clot time increase) of 137%. It also gave an activity at 3300 µg/mL (platelets in whole blood; [13]) of 126%, an activity at 5000 µg/mL (platelets in whole blood; [13]) of 171% and an activity at 6700 µg/mL (platelets in whole blood; [13]) of 236%. The activity at 3300 µg/mL (platelets in whole blood; [14]) was 116%, the activity at 5000 µg/mL (platelets in whole blood; [14]) was 153% and the activity at 6700 µg/mL (platelets in whole blood; [14]) was 205%. The “IC50 (mg/ml) mitochondria inhibition” value [2] was 36.3 mg/mL (≈ 321 mM).
`O=C(O)Cc1nnn[nH]1` [Compound 82, 2-(1H-tetrazol-5-yl)acetic acid] was tested, and the activity at 3300 µg/mL (platelets in whole blood; [6]) was 137%, the activity at 3300 µg/mL (platelets in whole blood; [7]) was 240% and the activity at 3300 µg/mL (platelets in whole blood; [8]) was 222%. It also gave an activity at 5000 µg/mL (platelets in whole blood; [15]) of 217%, an activity at 5000 µg/mL (platelets in whole blood; [16]) of 755% and an activity at 5000 µg/mL (platelets in whole blood; [17]) of 601%. For the same molecule, the “IC50 (mg/ml) mitochondria inhibition” value [2] was 11.8 mg/mL (≈ 92.1 mM).
With `CCOC(=O)Cc1nnn[nH]1` [Compound 80, ethyl 2-(1H-tetrazol-5-yl)acetate] the activity at 3300 µg/mL (platelets in whole blood; [6]) was 110%, the activity at 3300 µg/mL (platelets in whole blood; [7]) was 107% and the activity at 3300 µg/mL (platelets in whole blood; [8]) was 104%. It also gave an activity at 5000 µg/mL (platelets in whole blood; [15]) of 121%, an activity at 5000 µg/mL (platelets in whole blood; [16]) of 143% and an activity at 5000 µg/mL (platelets in whole blood; [17]) of 141%. For the same molecule, the activity at 6700 µg/mL (platelets in whole blood; [9]) was 133%, the activity at 6700 µg/mL (platelets in whole blood; [10]) was 207% and the activity at 6700 µg/mL (platelets in whole blood; [11]) was 209%. For the same molecule, the “IC50 (mg/ml) mitochondria inhibition” value [2] was 100 mg/mL (≈ 640 mM).
For `CSc1nnn[nH]1` [Compound 83, 5-methylsulfanyl-1H-tetrazole], the activity at 3300 µg/mL (platelets in whole blood; [6]) was 127%, the activity at 3300 µg/mL (platelets in whole blood; [7]) was 167% and the activity at 3300 µg/mL (platelets in whole blood; [8]) was 157%. For the same molecule, the activity at 5000 µg/mL (platelets in whole blood; [15]) was 191%, the activity at 5000 µg/mL (platelets in whole blood; [16]) was 584% and the activity at 5000 µg/mL (platelets in whole blood; [17]) was 512%. For the same molecule, the activity at 6700 µg/mL (platelets in whole blood; [9]) was 297%, the “Reversible?” value [1] was “reversible and Yes” and the “IC50 (mg/ml) mitochondria inhibition” value [2] was 14.5 mg/mL (≈ 125 mM).
